Ends that are not written are not given here.

The values that follow come from article PMC10154249, “Unique progerin C-terminal peptide ameliorates Hutchinson–Gilford progeria syndrome phenotype by rescuing BUBR1” (Nature Aging, 2023).

One data set has as its system HGPS cells. The following applies: cited from earlier work. An excerpt:
(§1) At present, clinical drugs for HGPS are very rare except for Zokinvy (lonafarnib), which has been approved by the United States (US) Food and Drug Administration (FDA). […] Recently, some gene therapies for HGPS treatment have been developed. The clustered regularly interspaced short palindromic repeat–adeno-associated virus 9 system is used to reduce the expression of progerin and the adenine base editor–adeno-ass ...

The subject of the next data set is PTBP1–BUBR1 mRNA 3′-UTR. The experiment in a line: RIP assay of PTBP1 and BUBR1 mRNA 3′-UTR in HEK-293T cells. The class given is cell-based. The procedure:
RIP and RNA pulldown assays were performed as previously described. The RIP experiment was carried out using the EZ-Magna RIP Kit (Millipore, catalog no. 17-701). The coprecipitated RNAs were extracted through Trizol reagent and detected by RT-PCR. The primer sequences for PCR, synthesized by Comate Bioscience, were as follows:
BUBR1-3′UTR_fwd (5′-[…]-3′) and BUBR1-3′UTR_rev (5′- […]-3′).

Another data set has as its system BUBR1 mRNA 3ʹ-UTR. The experiment in a line: Luciferase activity assay of BUBR1 mRNA 3ʹ-UTR in HEK-293T cells. The format is cell-based. The following applies: Fig. 4k, Vector = 1, P=0.0012. The procedure:
The experiments were performed as described previously. The BUBR1 (–1,200 to +100) promoter or the DNA fragment of BUBR1 mRNA 3′-UTR was inserted into the pGL4.20 vector. Cells were plated in 24-well plates. After 24 h, cells were cotransfected with 200 ng of the indicated firefly luciferase reporter plasmid and 50 ng of Renilla luciferase normalization control plasmid using PEI. At 48 h after transfection, cell lysates were collected to measure luciferase activity using the Dual-Luciferase Reporter Assay System (Promega, catalog no. E1910) according to the manufacturer’s instructions. Luciferase reporter assay was carried out on an TD-20/20 Turner Designs luminometer, data were analyzed and further processed in Microsoft Excel and GraphPad Prism v.7.

The subject of data set [1] is BUBR1 / CyclinA2 in HGADFN003 cells. The experiment in a line: Western blot of BUBR1 and CyclinA2 in HGADFN003 cells. The format is cell-based, human. To be noted: HGADFN003. The method, then: Western blot was performed as previously described. Cells were lysed in 1× Laemmli sample buffer after washing twice in cold PBS without calcium and magnesium. Protein concentrations were determined using the bicinchoninic acid (BCA) protein assay. Protein lysates were subjected to SDS–PAGE, transferred to 0.45-μm pore size hydrophobic PVDF transfer membrane (Merck Millipore), detected with the appropriate primary antibodies coupled with horseradish peroxidase-conjugated corresponding secondary antibodies, and visualized using enhanced chemiluminescence ECL reagent (GE Healthcare). The Tanon 5500 high-definition low-illumination CCD system (Tanon FLI Capture v.1.02) was used to capture chemiluminescent signals.
Background: A western blot detects proteins with antibodies after separation by electrophoresis.

The test system of data set [2] is HGADFN003 cells. The experiment in a line: SA-β-gal staining of HGADFN003 cells. To be noted: for SA-β-gal positive cells: HGADFN003, Extended Data Fig. 10c. The class given is cell-based, human. The method, then:
SA-β-gal staining was performed as previously described. Cells were fixed in 0.5% glutaraldehyde for 15 min at room temperature, washed three times with PBS (pH 6.0) containing 1 mM MgCl2 and exposed overnight 37 °C to containing 1 mg ml^–1 5-bromo-4-chloro-3-indolyl-β-D-galactopyranoside (MCE, catalog no. HY-15934), 0.12 mM potassium ferrocyanide (Sigma, catalog no. P3289), 0.12 mM potassium ferricyanide (Sigma, catalog no. P8131) and 1 mM MgCl2 PBS buffer (pH 6.0). Cells were washed three times with H2O and observed under a microscope (OLYMPUS CKX53). SA-β-gal positive cells were quantified by investigators who were blinded to the identity of the analyzed cell.

The subject of data set [3] is HGADFN003 cells. The experiment in a line: Ki67 immunofluorescence of HGADFN003 cells. The format is cell-based, human. The following applies: for Ki67 positive cells: HGADFN003, Extended Data Fig. 10e. The procedure: (§2) Immunofluorescence was performed as described previously. Cells were plated on cover slips in 12-well plates, left overnight before the treatment. Cells were fixed in 1% formaldehyde in culture medium for 10 min at 37 °C and permeabilized with 0.2% Triton X-100 in PBS for 10 min at room temperature. Cells were washed twice in PBS and blocked for 1 h with 5% BSA in PBS and then incubated with primary antibodies at 4 °C overnight, washed three times in PBS and incubated with secondary antibodies for 1 h at room temperature. Cell nuclei were counterstained with a 500 nM concentration of 4,6-diamidino-2-phenylindole (DAPI) (Sigma). Images were acquired by a fluorescence microscope (OLYMPUS FV-1000, Carl Zeiss LSM880 or Leica DMi8) and analyzed with software NIS-Elements AR v.5.0.1 (Nikon), FLUOVIEW v.4.2b (OLYMPUS), ZEN v.2.3 SP1 (Carl Zeiss) and Leica Application Suite X v.3.6.0.24 (Leica). Cells were quantified by investigators who were blinded to the identity of the analyzed cell.

Data set [4] relates to BUBR1–progerin interaction. The experiment in a line: Immunofluorescence of BUBR1 in IMR90 cells with FTI or UPCP. The class given is cell-based, human. The procedure: as §2
The test system of data set [5] is progerin–BUBR1 interaction. The experiment in a line: CoIP of progerin and BUBR1 in HEK-293T cells. The format is cell-based. The following applies: HEK-293T cotransfected with Flag-progerin-C 5, 10, 15 μg and HA-progerin. The method, then:
Detailed descriptions of CoIP were described previously[55],[56]. Cells were harvested and washed three times in cold PBS, then lysed in CoIP buffer (25 mM Tris-HCl (pH 7.5), 150 mM KCl, 5 mM EDTA, and 0.5% NP-40) plus protease inhibitor cocktail tablet (Roche). Incubate on ice and shock lysates on the vortex shaker 15 times for 30 s each. Microcentrifuge in 12,000g for 15 min at 4 °C, collect the supernatant, and incubate with 3 μg primary antibodies with gentle shaking overnight at 4 °C, followed by adding 20–40 μl Pure Proteome Protein A/G Mix Magnetic Beads (Millipore, catalog no. […]02) for 3 h. Wash the beads three times with 1 ml CoIP buffer for 8 min each, resuspend in 50 μl 1× loading buffer, and incubate at 100 °C for 8 min. Throw beads away and analyze by immunoblotting.

A further data set concerns HEK-293T cells. The experiment in a line: Immunofluorescence localization of Flag-progerin-C in HEK-293T cells. The class given is cell-based. To be noted: Flag-progerin-C expressed in HEK-293T. The procedure:
as §2

For data set [6] the following is noted: in vivo; cited from earlier work.
Source text: as §1

For the compound neuropeptide Y, the “cellular HGPS aging phenotype” value in the data set on HGPS cells was “delays the cellular HGPS aging phenotype by stimulating autophagy and decreasing progerin accumulation”.

As to PTBP1, the “PTBP1 enrichment on BUBR1-3'UTR (2-ΔΔCt)” value was determined as 21.8107 in the data set on PTBP1–BUBR1 mRNA 3′-UTR (Fig. 4i, IgG = 1, P=0.0086, replicate 1); 40.6928 with PTBP1–BUBR1 mRNA 3′-UTR (Fig. 4i, IgG = 1, P=0.0086, replicate 2); 24.8579 in the data set with PTBP1–BUBR1 mRNA 3′-UTR (Fig. 4i, IgG = 1, P=0.0086, replicate 3); 12.7685 in the data set on PTBP1–BUBR1 mRNA 3′-UTR (Fig. 4n, PTBP1, Vector = 1, P<0.0001 vs Vector, replicate 1); 13.1604 in the data set on PTBP1–BUBR1 mRNA 3′-UTR (Fig. 4n, PTBP1, Vector = 1, P<0.0001 vs Vector, replicate 2); 13.6473 in the data set with PTBP1–BUBR1 mRNA 3′-UTR (Fig. 4n, PTBP1, Vector = 1, P<0.0001 vs Vector, replicate 3). Moreover, the entries for the “Relative luciferase activity of BUBR1 3'UTR (PTBP1/Vector)” value with BUBR1 mRNA 3ʹ-UTR (replicate 1), with BUBR1 mRNA 3ʹ-UTR (replicate 2) and in the data set with BUBR1 mRNA 3ʹ-UTR (replicate 3) were 3.3, 4 and 3, respectively.

Consider `COC(=O)[C@H](CCSC)NC(=O)c1ccc(NC[C@@H](N)CS)cc1-c1ccccc1` [FTI-277, reference compound], for which the “BUBR1 expression (FTI-277/UPCP comparison, words)” value in data set [1] is reported as “increasing expression of BUBR1”. In addition, in data set [1], the “CyclinA2 expression (FTI-277/UPCP comparison, words)” value was “increasing expression of BUBR1, CyclinA2”. In addition, in the data set with HGADFN003 cells [2] (HGADFN003), the “SA-β-gal activity (FTI-277/UPCP comparison, words)” value is “decreased the activity of SA-β-gal”. Also, the SA-β-gal positive cells in the data set with HGADFN003 cells [2] (replicate 1) turned out to be 20%; with HGADFN003 cells [2] (replicate 2), 15%; in the data set with HGADFN003 cells [2] (replicate 3), 13%. Further, the “Ki67 expression (FTI-277/UPCP comparison, words)” value in the data set on HGADFN003 cells [3] (HGADFN003) was “increasing expression of BUBR1, CyclinA2 and Ki67”. The figures for the Ki67 positive cells with HGADFN003 cells [3] (replicate 1), in the data set on HGADFN003 cells [3] (replicate 2) and in the data set on HGADFN003 cells [3] (replicate 3) were 57%, 61% and 75%, respectively. Further, the “block of the interaction of BUBR1 and progerin” value in [4] is “failed to block the interaction of BUBR1 and progerin”.

Take “progerin-C: progerin C-terminal region (aa residues 565–614), expressed in cells (HHGSHCSSSGDPAEYNLRSRTVLCGTCGQPADKASASGSGAQSPQNCSIM; cysteine pairing not given here; also: 3×Flag tag, end not given here)”: the “competition with progerin to bind BUBR1” value in [5] is “competes with progerin to bind BUBR1”. For the same compound, in the data set on HEK-293T cells, the cellular location entry is “distributed throughout the cell”.

Take `NC(=O)N1CCC(CC(=O)N2CCC([C@H]3c4ncc(Br)cc4CCc4cc(Cl)cc(Br)c43)CC2)CC1` [Zokinvy (lonafarnib), lonafarnib]: in data set [6], the adverse reactions result is “diarrhea and vomiting”.
